Here are results for 4 molecules from patent US20130053365A1, “DIHYDROPYRIDOPHTHALAZINONE INHIBITORS OF POLY(ADP-RIBOSE)POLYMERASE (PARP)” (BioMarin Pharmaceutical, Inc., priority 2011, published 2013).

Experiment [1] relates to BRCA2-deficient cell line V-C8. The settings on record: BRCA2-deficient V-C8 compared with BRCA2 wild type control; cited from earlier work.
The target in experiment [2] is T1, PARP-1 (Homo sapiens, UniProt P09874). The settings on record: literature value, Farmer et al., Nature 2005; read-out: Ki (PARP-1 inhibitor); cited from earlier work.
Target sequence in this assay (P09874 whole entry, species assumed): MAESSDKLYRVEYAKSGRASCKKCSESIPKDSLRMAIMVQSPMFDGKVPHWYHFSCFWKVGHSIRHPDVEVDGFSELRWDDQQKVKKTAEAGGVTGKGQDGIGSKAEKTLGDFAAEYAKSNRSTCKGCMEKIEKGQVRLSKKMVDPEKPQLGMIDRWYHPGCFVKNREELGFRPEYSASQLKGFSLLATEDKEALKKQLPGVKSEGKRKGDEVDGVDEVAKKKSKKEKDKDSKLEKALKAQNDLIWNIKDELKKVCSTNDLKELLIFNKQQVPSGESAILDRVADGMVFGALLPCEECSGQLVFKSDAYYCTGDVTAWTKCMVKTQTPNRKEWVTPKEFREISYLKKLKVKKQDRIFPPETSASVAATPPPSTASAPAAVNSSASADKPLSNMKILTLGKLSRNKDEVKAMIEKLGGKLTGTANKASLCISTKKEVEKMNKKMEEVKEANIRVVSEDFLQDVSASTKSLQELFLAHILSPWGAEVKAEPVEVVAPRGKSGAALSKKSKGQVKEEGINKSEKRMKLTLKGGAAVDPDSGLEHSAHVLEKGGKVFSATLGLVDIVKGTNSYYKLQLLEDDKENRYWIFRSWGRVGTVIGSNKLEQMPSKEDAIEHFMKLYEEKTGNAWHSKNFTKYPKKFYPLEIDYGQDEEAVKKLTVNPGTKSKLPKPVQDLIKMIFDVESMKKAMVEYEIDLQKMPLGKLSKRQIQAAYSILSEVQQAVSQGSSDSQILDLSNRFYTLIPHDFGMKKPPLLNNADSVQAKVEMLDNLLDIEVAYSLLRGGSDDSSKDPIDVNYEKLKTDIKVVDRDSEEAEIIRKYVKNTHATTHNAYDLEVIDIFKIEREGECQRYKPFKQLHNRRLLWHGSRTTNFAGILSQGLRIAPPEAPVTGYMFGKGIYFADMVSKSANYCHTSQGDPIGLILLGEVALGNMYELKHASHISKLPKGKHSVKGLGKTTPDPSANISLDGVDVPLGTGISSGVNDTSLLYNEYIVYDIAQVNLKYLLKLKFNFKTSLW
The next experiment deals with CAPAN-1 cells. The settings on record: CAPAN-1 cells in DMEM with FCS (20% v/v), glutamine and antibiotics; cited from earlier work.
Experiment [3] concerns the target T1, PARP-1. Nature of the experiment: Universal Chemiluminescent PARP Assay (Trevigen kit), inhibition of human PARP 1 enzyme. The class given is biochemical. More on the design: purchased Trevigen 4676-096-K. To be noted: recombinant human PARP 1 enzyme, read-out: PARP-inhibitory activity. On the procedure:
Inhibitory effects of test compounds against human PARP 1 enzyme are assessed using Trevigen's Universal Chemiluminescent PARP Assay Kit (Trevigen CAT #4676-096-K) following the manufacturer's recommended protocol.
Immediately prior to performing the assay, the following reagents are prepared: A) 20× PARP Assay Buffer is diluted to 1× with dH2O; B) 10× PARP Cocktail, which contains a mixture of NAD and biotinylated NAD, is diluted by the addition of 10× Activated DNA and 1× PARP Assay Buffer. Both the PARP Cocktail and Activated DNA are 1× after the dilution; C) all test compounds are initially dissolved in DMSO, and subsequently serial diluted with 1× PARP Assay Buffer; D) recombinant human PARP 1 enzyme is diluted with 1× PARP Assay Buffer to generate 0.5 unit/15 μL; E) 10× Strep-Diluent is diluted to 1× with 1× PBS/0.1% Triton X-100; F) Just before use, Strep-HRP is diluted 500-fold with 1× Strep-Diluent.
The chemiluminescent assays for PARP activity is performed in white 96-well plates that are pre-coated with histones. […]
The reactions are allowed to proceed for 1 hour at room temperature. […] The light output is immediately determined in a plate reader (EnVision, by Perkin Elmer) set up for measuring chemiluminescence.
The % enzyme activity for each compound is then calculated using the following equation: […]
Target sequence in this assay (P09874 whole entry): as the sequence (P09874 whole entry, species assumed) above

Several values for one entry are separate records, joined by “and”; a condition that tells them apart may be missing. Equal values may be shown once.

Consider `CN(C)Cc1ccc(-c2nc3cccc4c3n2CCNC4=O)cc1` [AG14361], for which the “sensitivity in clonogenic survival assay” value in experiment [1] was “exhibited sensitivity”. In addition, on PARP-1 [2], the Ki was 5 nM.

As for `O=C(c1cc(Cc2n[nH]c(=O)c3ccccc23)ccc1F)N1CCN(C(=O)C2CC2)CC1` [AZD2281], in the experiment on CAPAN-1 cells, the “sensitivity to PARP inhibition in clonogenic survival assay” value was “showing sensitivity to PARP inhibition”.

Consider `Cn1ncnc1C1c2n[nH]c(=O)c3cc(F)cc(c23)NCC1c1ccc(F)cc1` (stereo not drawn) [Compound 40, 5-fluoro-9-(4-fluorophenyl)-10-(1-methyl-1H-1,2,4-triazol-5-yl)-7,8,9,10-tetrahydroazepino[4,3,2-de]phthalazin-3(2H)-one], for which, at PARP-1 [3], the IC50 was < 800 nM and 250 to 300 nM.

As for `Cc1nc2c(O)cccc2c(=O)[nH]1` [NU1025], the “sensitivity in clonogenic survival assay” value in experiment [1] is given as “exhibited sensitivity”. Also, the Ki on PARP-1 [2] is 50 nM.
